For this assay, the target named is potassium currents (Kv1.1) in MK1 cell (Mus musculus, UniProt P16388). Particulars: TEA 5 mM in extracellular solution in the dish, then washing; FIG. 21.

The structures appear in SMILES notation.

Sequence of potassium currents (Kv1.1) in MK1 cell (P16388 whole entry): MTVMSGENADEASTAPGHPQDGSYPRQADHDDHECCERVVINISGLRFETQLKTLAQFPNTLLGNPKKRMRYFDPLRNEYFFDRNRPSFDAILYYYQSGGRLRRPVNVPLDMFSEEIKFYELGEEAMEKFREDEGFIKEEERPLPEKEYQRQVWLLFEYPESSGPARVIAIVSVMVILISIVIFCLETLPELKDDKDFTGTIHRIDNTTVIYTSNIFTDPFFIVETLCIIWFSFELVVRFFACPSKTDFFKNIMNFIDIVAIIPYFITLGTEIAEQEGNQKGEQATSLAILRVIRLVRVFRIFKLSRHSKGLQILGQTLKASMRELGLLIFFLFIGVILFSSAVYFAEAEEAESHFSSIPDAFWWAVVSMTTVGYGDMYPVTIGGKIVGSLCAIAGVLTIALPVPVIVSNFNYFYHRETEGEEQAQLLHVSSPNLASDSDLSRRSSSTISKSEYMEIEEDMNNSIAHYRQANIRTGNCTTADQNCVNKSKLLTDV
Description: The solution may be exchanged readily by perfusion of the dish and this allows multiple drug additions and dose response curves to be obtained while recording from the one cell.
The holding potential was −60 mV and (a) and (b) show outward potassium currents (Kv1.1) in response to a voltage step to +30 mV.

On to `CC[N+](CC)(CC)CC` [TEA, tetraethylammonium], for which the “effect on the potassium current recorded from MK1 cell in whole cell recording mode” value is “blocking effect of TEA was reversed by washing”.

The record behind these values is patent US7384733B1, “Interface patch clamping” (Xention Discovery Limited, priority 1998, dated 2008).
